The text below walks through data of PMC10447463, “Data-mining unveils structure–property–activity correlation of viral infectivity enhancing self-assembling peptides” (Nature Communications, 2023).

The format of data set [1] is physicochemical. Also on record: key to Fibril / Fibril Formation / TEM 2cat / Fibril: 1 = fibrils present; 0 non-fibrillar structures. The protocol:
For ATR FT–IR spectroscopy measurements, 200 µL of the respective 1 mg/mL PNF solution was lyophilized and the resulting powder used for measurement. All spectra were recorded on a Bruker Tensor 27 spectrometer with a diamond crystal as ATR element (PIKE MiracleTM, spectral resolution 2 cm^-1). Every sample was measured with 64 scans. Data were analyzed with OriginLab software and calculation of β–sheet content was conducted according to a previous report. TEM. For TEM measurements 5 µL of PNF fibrils (1 mg/mL) were placed on copper grids coated with carbon and formvar layer (300 mesh, Plano GmbH). After 10 min incubation time, the grids were staining with 4% uranyl acetate solution for 2.5 min and washed with water. Measurements were performed on a Jeol 1400 electron microscope with 120 kV acceleration voltage. CR Assay. For the determination of the amount of peptide monomer converting into nanostructures the amine reactive dye fluorescamine was used analogous to a previous reported protocol. Briefly, 100 µL of the preformed PNF solution was centrifuged in a Vivaspin 500 tube (3 kDa MWCO) to separate fibers from free peptide monomer (16200 x g, 4 °C, 45 min). The filtrate and 100 μL of the non-filtered PNF sample were lyophilized and dissolved in 30 μL DMSO. 10 μL of the filtrate and non-filtered DMSO samples were submitted in a black UV Star® 384 microliter well–plates (Greiner bio–one) and 3 μL of the fluorescamine solution (10 mg/mL, DMSO) was added to measure the fluorescence enhancement. After 20 min of incubation at RT, fluorescence was recorded on an Infinite® M1000 PRO microplate reader (Tecan) at λem = 470 nm upon excitation at λex = 365 nm with 10 nm bandwidths and multiple reads per well (3×3). Measurements were repeated in triplicates and averaged with standard deviation. All values were calculated as n-fold fluorescence enhancement (DMSO only as a reference was set to 1). The conversion rate CR was defined according to the equation Eq. (3).3 CR=100−100×fluorescenceintensityfiltrate/fluorescenceintensityoriginal[%]
(§1) 1. Remarks on experimental parameters and bioinformatic descriptors
1.1 Experimental parameters
Transmission electron microscopy (TEM) measurements. TEM measurements were used to control if peptides assemble. The assemblies were categorized in non -fibrillar structures (no assembly, […]
grid but only amorphous aggregates. In contrast, peptides defined as fibrillar may also include amorphous structures. Amongst nonfibrillar assemblies also amorphous aggregates are summarized.
Amorphous aggregates are defined as structures with high β-sheet content which lack long-range order, that is crystallinity or fibril formation. It is generally assumed that these structures might be

The nature of data set [2]: Zeta-potential measurement. The class given is physicochemical. More on the design: Zeta-Potential: unit not given here. The following applies: for Zeta-pot. / mV: zeta potential of peptide, Fig S15 source data. The procedure:
(§2) 4 µL of 1 mg/mL peptide fibrils solution is added to a 20 µL, 50 µM ThT–solution in PBS. The mixture is incubated for 15 min at RT to allow binding of ThT dye with β–sheet rich structures. For reference PBS (4 µL) was added instead of peptide fibril solution. The samples were placed in black UV Star® 384 microliter well–plates (Greiner bio–one). Fluorescence spectra were recorded on an Infinite® M1000 PRO microplate reader (Tecan) at λem = 488 nm upon excitation at λex = 440 nm with 10 nm bandwidths and multiple reads per well (3×3). Measurements were repeated in triplicates and averaged with standard deviation. […] Zeta-Potential. For the determination of the surface charge of aggregated peptides zeta-potential measurements were conducted with a Zetasizer Nano ZS, Malvern Instruments. Unless stated otherwise the peptides were dissolved from DMSO (10 mg/mL) in PBS (pH 7.4) to concentration of 1 mg/mL and incubated for 1d at RT. Just before the measurement the 60 µL of the peptides were further diluted in 600 µL KCl (aq, 1 mM) in a 1 mL disposable folded capillary cells (DTS–1060, Zetasizer Nano series, Malvern). The zeta potential of the peptides was derived from the electrophoretic mobility based on the Smoluchowski formula. All measurements were averaged over two individually performed experiments and conducted in triplicates for each sample. Aggregate analysis. […] Furthermore, fluorescence microscopy was conducted by staining 1 µL preformed fibrils (1 mg/mL) with 9 µL ThT (50 µM). Brightfield microscopy was performed simultaneously to evaluate aggregation also for non ThT-active fibrils. The measurements were performed on a Leica DMi8 microscope with 10x air objective and equipped with a Leica MC170 HD camera with a filter setting λem = 527/30 nm upon excitation at λex = 480/40 nm) and processed with the Leica LASX software. To quantify size and number of microscopic aggregation of particles > 10 µm^2 at least 3 independently measured images were analyzed via the 3D object counter analysis tool of ImageJ, v 1.53f51. Sum–frequency generation. The SFG experiments were carried out with a femtosecond Ti: Sapphire amplified laser system (Spitfire Ace, Spectra–Physics, 800 nm, 40 fs, 1 kHz) with 5 W output power. We used 2 W to pump an optical parametric amplifier (TOPAS, light conversion) with a non–collinear difference frequency generation stage to generate broadband IR pulses. Another 1 W of the laser output passed through an etalon to generate narrowband visible pulses (10 cm^-1). The incident angles of the visible and IR beams were 36° and 41° with respect to the surface normal, respectively. The visible (13 µJ) and IR (5 µJ) pulses were overlapped spatially and temporally at the sample position. Subsequently, the generated SFG pulse was guided into a spectrograph (Acton SP 300i, Princeton Instruments), and detected with an EMCCD (Newton, Andor Technology). To avoid IR absorption of water vapor, we purged N2 for the measurement. All spectra were collected in the ssp (denoting s-, s- and p-polarized SFG, visible and IR, respectively) polarization combination. The spectra were normalized to the non–resonant signal taken from z–cut quartz after subtracting a background spectrum. […]

Data set [3] is classed as physicochemical. The conditions noted are these: ThT fluorescence relative to blank (42.1851851851852 a.u.). The procedure:
4 µL of 1 mg/mL peptide fibrils solution is added to a 20 µL, 50 µM ThT–solution in PBS. The mixture is incubated for 15 min at RT to allow binding of ThT dye with β–sheet rich structures. For reference PBS (4 µL) was added instead of peptide fibril solution. The samples were placed in black UV Star® 384 microliter well–plates (Greiner bio–one). Fluorescence spectra were recorded on an Infinite® M1000 PRO microplate reader (Tecan) at λem = 488 nm upon excitation at λex = 440 nm with 10 nm bandwidths and multiple reads per well (3×3). Measurements were repeated in triplicates and averaged with standard deviation. […] Zeta-Potential. For the determination of the surface charge of aggregated peptides zeta-potential measurements were conducted with a Zetasizer Nano ZS, Malvern Instruments. Unless stated otherwise the peptides were dissolved from DMSO (10 mg/mL) in PBS (pH 7.4) to concentration of 1 mg/mL and incubated for 1d at RT. Just before the measurement the 60 µL of the peptides were further diluted in 600 µL KCl (aq, 1 mM) in a 1 mL disposable folded capillary cells (DTS–1060, Zetasizer Nano series, Malvern). The zeta potential of the peptides was derived from the electrophoretic mobility based on the Smoluchowski formula. All measurements were averaged over two individually performed experiments and conducted in triplicates for each sample. Aggregate analysis. […] Furthermore, fluorescence microscopy was conducted by staining 1 µL preformed fibrils (1 mg/mL) with 9 µL ThT (50 µM). Brightfield microscopy was performed simultaneously to evaluate aggregation also for non ThT-active fibrils. The measurements were performed on a Leica DMi8 microscope with 10x air objective and equipped with a Leica MC170 HD camera with a filter setting λem = 527/30 nm upon excitation at λex = 480/40 nm) and processed with the Leica LASX software. To quantify size and number of microscopic aggregation of particles > 10 µm^2 at least 3 independently measured images were analyzed via the 3D object counter analysis tool of ImageJ, v 1.53f51. Sum–frequency generation. The SFG experiments were carried out with a femtosecond Ti: Sapphire amplified laser system (Spitfire Ace, Spectra–Physics, 800 nm, 40 fs, 1 kHz) with 5 W output power. We used 2 W to pump an optical parametric amplifier (TOPAS, light conversion) with a non–collinear difference frequency generation stage to generate broadband IR pulses. Another 1 W of the laser output passed through an etalon to generate narrowband visible pulses (10 cm^-1). The incident angles of the visible and IR beams were 36° and 41° with respect to the surface normal, respectively. The visible (13 µJ) and IR (5 µJ) pulses were overlapped spatially and temporally at the sample position. Subsequently, the generated SFG pulse was guided into a spectrograph (Acton SP 300i, Princeton Instruments), and detected with an EMCCD (Newton, Andor Technology). To avoid IR absorption of water vapor, we purged N2 for the measurement. All spectra were collected in the ssp (denoting s-, s- and p-polarized SFG, visible and IR, respectively) polarization combination. The spectra were normalized to the non–resonant signal taken from z–cut quartz after subtracting a background spectrum.
as §1

For data set [4], the system named is HIV-1 infection of TZM-bl cells. In words: HIV-1 infectivity enhancement assay, β-galactosidase luminescence. The conditions noted are these: for infectivity: infectivity class (low / medium / high) of each library peptide, main list in c1-c6, same classes repeated in sub-lists of sequences containing the hydrophobicity/charge patterns P+,H0,P+,H0,P0,H0,P0, P+,H0,P0,H0,P0,H0,P0, P+,H0,P0,H0; for Log10 Inf. rel. to EF-C: log10 of HIV-1 infection of TZM-bl cells relative to EF-C, Fig S15 source data, asymmetric std dev errors. The class given is cell-based.

A short description of data set [5]: Turbidity, derived count rate of scattered light. It is filed as physicochemical. The procedure:
as §2
ways to determine turbidity of samples, this can be via transmittance and via scattering. Transmittance […]
as it is an easy and fast method.10,11 However, transmittance contributes not only from µm-sized aggregates but also nm-sized aggregates such as distinct fibrils, which makes hard to distinguish between fibril formation and micrometer sized aggregation. Although dynamic light scattering is a frequently applied method for determination of particle size, it cannot be conducted in solutions with anisotropic aggregates in micrometer size range, since the Stokes-Einstein relation is only applicable for homogeneous […] spherical particles.12 Further models describing scattering intensity and […]

Read-outs that look alike come from different tables or passages of the source.

For EFEFQFNMWQ [JH1], the “TEM: 1= fibrils, 0= aggregates (micelle), 0.5 = aggregates and fibrils, -1 = nothing obersved, STD prep” value in data set [1] and in data set [1] (TEM) was 1 in each case. The “Zeta category ( +1 = if > 4 mV;-1 = if < -4 mV; 0 = -4mV to 4 mV)” value in data set [2] and in data set [2] (category derived from the zeta potential) was 0 (0 = -4mV to 4 mV) each time.
With ILKNLSRSRKIKIQINMWQ [TM92], the “Tht rel to blank (42.1851851851852)” value in data set [3] came out at 3.339. For the same substance, in data set [4] (Feb2021, Log10 of infectivity relative to EF-C), the “Log10 of Rel to EFC (Feb2021)” value is on record as -0.4939. For the same substance, the “Rel-to EFC (Feb-2021)” value in data set [4] (Feb2021, n-fold enhancement relative to EF-C) turned out to be 0.3207. In data set [4], the infectivity result was “medium” and the “Log10 Inf. rel. to EF-C” value is on record as -0.4939. Also, in data set [5] (category 1 or 0 from count rate, key not given), the “Zeta Count Rate Category” value came to 1. In addition, the “Zeta Count Rate / kcps” value in data set [5] (derived count rate of scattered light, mean, std deviation in next column) was determined as 306.5 kcps. In addition, in data set [2] (category from zeta potential), the “Zeta category ( +1 = if > 4 mV;-1 = if < -4 mV; 0 = -4mV to 4 mV)” value is reported as 1 (+1 = if > 4 mV). Moreover, the “Zeta Pot. / mV” value in data set [2] (mean, Std Zeta in next column) was determined as 19.2 mV. The “Zeta-pot. / mV” value in data set [2] amounted to 19.2 mV.
As to KCQCQCQ, in data set [4] (log10 of infection relative to EF-C, Figure 6C), the “Log10 Infection Rel EF-C” value is 0.05949. For the same substance, in data set [4] (n-fold infection vs virus only, relative to that of EF-C, 1.3 µM peptide), the “Inf. rel. EF-C” value is 1.15. Besides, the “Fibril / Fibril Formation” value in data set [1] (TEM, 1 mg/mL, uranyl acetate stain, qualitative) was found to be 1. Further, the “Count Rate / kcps” value in data set [5] (derived count rate of scattered light at 633 nm, 173°, from zeta-potential measurement, 0.1 mg/mL in 1 mM KCl after 1 d at 1 mg/mL in PBS, turbidity / microscopic aggregation, mean of triplicate) was determined as 15236 kcps. The “Log10 Count Rate” value is listed as 4.183 in data set [5] (log10 of derived count rate of scattered light, Figure 6C) and 4.183 in data set [5] (logarithm of count rate in kcps). In data set [2] (mean, Figure 6C), the “Zeta-Potential / mV” value is 11.83 mV.
Regarding Lysozyme, the “Count Rate” value in data set [5] (derived count rate of scattered light, mean of n = 3) is 217.9 kcps; in data set [5] (derived count rate of scattered light, replicate 1), 304.4 kcps; in data set [5] (derived count rate of scattered light, replicate 2), 195.7 kcps; in data set [5] (derived count rate of scattered light, replicate 3), 153.6 kcps. In addition, the “Zeta Potential” value in data set [2] (mean of n = 3) turned out to be 4.807. Moreover, the Zeta-Potential came to 4.05 in data set [2] (replicate 1), 5.03 in data set [2] (replicate 2) and 5.34 in data set [2] (replicate 3).
With PPFHPPPFHP [CN22], in data set [4], the infectivity entry was “low” and the “Log10 Inf. rel. to EF-C” value is recorded as -1.751. In addition, in data set [2], the “Zeta-pot. / mV” value was -15.8 mV.
As to RGDKIRGDKI [CN4], in data set [4], the infectivity entry is recorded as “low” and the “Log10 Inf. rel. to EF-C” value is reported as -2.126. For the same substance, in data set [2], the “Zeta-pot. / mV” value was -13.57 mV.
The like results for RPRGLLLGNLR [CN20] were, in that order, “low”, -1.3163 and -8.15 mV.
Turning to SISISRRI [CN28], in data set [4], the infectivity result is recorded as “low” and the “Log10 Inf. rel. to EF-C” value is -1.548. The “Zeta-pot. / mV” value in data set [2] is recorded as -17 mV.
The like results for TKTLTKTL [CN25] were, in that order, “low”, -1.671 and -25.1 mV.
